One assay addresses T1, HDAC3 (Homo sapiens, UniProt O15379).
T1 construct: purchased BPS Bioscience
Briefly: Microfluidic chip-based HDAC inhibition assay (Calliper off-chip mobility shift), HDAC3. Format: biochemical. Conditions: duplicate, 10-point dose curve, 3-fold serial dilution from 30 μM; SAHA 15-point dose curve.

The next assay concerns Mel270 cells. Briefly: Cell cycle distribution by flow cytometry (PI), Mel270 cells. Format: cell-based, human. The conditions noted are these: 10 µM compound, 48 h. On the procedure: (§1) We then investigated whether this anti-proliferative effect was due to the blockade in the G0/G1 phase of the cell cycle, as expected for SAHA[31].
(§2) Figure 8. Influence of the different compounds and DMSO solvent control on cell cycle distribution in UM 92.1 and Mel270 cells. The cells were treated with 10 µM compound for 48 h and cell cycle distribution was analysed by flow cytometry after fixation and staining with PI. The percentage of cells in each category is indicated. One representative experiment is shown.
(§3) Treatments with the compounds were performed with slight differences, according to the final use of the samples. For the cell viability assay with MTT, cells were seeded in 96-well flat-bottom plates in culture medium at 5 × 10^3 cells/well, whereas for cell cycle analysis and QRT-PCR cells were seeded in 24-well plates at 5 × 10^4 cells/well. The day after, a culture medium containing the appropriate amount of compounds or their solvent control DMSO was added, and treatments were carried out for the indicated time.
(§4) To assess the cell cycle status of treated samples, after 48 h of incubation the cells were harvested, washed twice with cold PBS, and fixed in 70% ethyl alcohol at −20 °C overnight. The day after, the samples were washed with cold PBS and incubated for 20 min with propidium iodide (PI) staining solution (50 μg/ml PI, 0.05% Triton X-100, 0.2 mg/ml RNase A in PBS) at room temperature. Flow cytometric analysis of DNA content was performed using a FACScan flow cytometer with the CellQuest software (BD Biosciences). Gating on viable cells was performed using physical parameters and 10^4 gated events were acquired. Cell cycle analysis on the gated PI distribution was performed using Modfit software.

Assay [1] relates to HeLa nuclear extract containing a mixture of HDACs. Briefly: HDAC Fluorimetric Assay/Drug Discovery Kit (BIOMOL) on HeLa nuclear extract. Format: biochemical.
Method: The hydroxamic acids 1a–c, 2a–f and carboxylic acids 3a–c, 4a––e synthesised in this study were preliminarily tested on a HeLa nuclear extract containing a mixture of HDACs, by using a commercially available HDAC assay kit (BIOMOL). SAHA and Trichostatin A (TSA) were used as positive controls.
HDAC inhibitory activity of newly synthesised compounds was evaluated using an HDAC Fluorimetric Assay/Drug Discovery Kit (AK-500, BIOMOL). […] Reactions were stopped after 30 min by adding Fluor de Lys^TM Developer. After the addition of this developer, the plate was incubated at room temperature for 15 min, the fluorescence intensity of the wells was measured on a fluorometric plate reader with excitation set at 360 nm and emission detection set at 460 nm.
A further assay deals with T2, HDAC6 (Homo sapiens, UniProt Q9UBN7).
T2 construct: purchased BPS Bioscience
T2 sequence (Q9UBN7 1-1215): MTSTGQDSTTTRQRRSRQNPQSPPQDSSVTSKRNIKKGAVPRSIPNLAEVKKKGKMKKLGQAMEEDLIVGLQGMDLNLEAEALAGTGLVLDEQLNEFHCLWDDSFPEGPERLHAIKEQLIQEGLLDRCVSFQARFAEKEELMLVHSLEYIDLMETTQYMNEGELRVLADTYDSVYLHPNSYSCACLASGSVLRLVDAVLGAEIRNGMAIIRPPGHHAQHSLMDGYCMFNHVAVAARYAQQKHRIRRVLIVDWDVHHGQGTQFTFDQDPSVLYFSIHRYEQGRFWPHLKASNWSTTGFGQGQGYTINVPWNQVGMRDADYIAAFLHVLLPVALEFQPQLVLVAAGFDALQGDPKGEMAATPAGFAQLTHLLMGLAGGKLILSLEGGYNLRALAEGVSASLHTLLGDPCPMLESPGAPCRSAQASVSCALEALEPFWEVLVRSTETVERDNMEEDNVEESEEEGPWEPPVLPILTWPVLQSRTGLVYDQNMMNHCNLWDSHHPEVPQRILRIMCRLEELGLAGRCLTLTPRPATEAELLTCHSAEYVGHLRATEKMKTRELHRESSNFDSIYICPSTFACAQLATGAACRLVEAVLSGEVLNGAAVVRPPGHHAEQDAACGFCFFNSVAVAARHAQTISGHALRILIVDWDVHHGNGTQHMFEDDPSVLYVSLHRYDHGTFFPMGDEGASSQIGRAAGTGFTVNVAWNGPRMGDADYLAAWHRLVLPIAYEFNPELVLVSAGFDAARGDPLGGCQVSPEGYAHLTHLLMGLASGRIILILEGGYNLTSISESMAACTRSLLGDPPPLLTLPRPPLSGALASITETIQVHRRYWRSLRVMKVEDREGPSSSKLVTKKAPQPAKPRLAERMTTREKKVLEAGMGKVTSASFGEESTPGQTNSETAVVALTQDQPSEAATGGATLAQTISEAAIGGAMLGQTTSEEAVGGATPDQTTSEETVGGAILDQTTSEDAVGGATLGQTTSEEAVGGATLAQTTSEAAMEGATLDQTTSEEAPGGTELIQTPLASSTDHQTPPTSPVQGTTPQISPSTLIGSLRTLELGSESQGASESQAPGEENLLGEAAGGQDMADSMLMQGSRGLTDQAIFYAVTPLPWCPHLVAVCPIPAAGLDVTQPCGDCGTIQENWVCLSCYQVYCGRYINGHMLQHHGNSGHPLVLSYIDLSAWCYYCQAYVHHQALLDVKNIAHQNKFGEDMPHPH
The experiment in a line: Microfluidic chip-based HDAC inhibition assay (Calliper off-chip mobility shift), HDAC6. Format: biochemical.

For the next assay, the system named is 92.1 cells. Briefly: Cell cycle distribution by flow cytometry (PI), 92.1 cells. Format: cell-based, human. The conditions noted are these: 10 µM compound, 48 h. On the procedure: as §1, §2, §3, §4
For another assay, the target named is T3, HDAC1 (Homo sapiens, UniProt Q13547).
T3 construct: purchased BPS Bioscience
The experiment in a line: Microfluidic chip-based HDAC inhibition assay (Calliper off-chip mobility shift), HDAC1. Format: biochemical. Conditions: duplicate, 10-point dose curve, 3-fold serial dilution from 30 μM.

In assay [2] the test system is HDAC target genes (RAD54L, RAD51, CLU, DHRS2, CDKN1A) in 92.1 cells. The experiment in a line: QRT-PCR of mRNA levels of HDAC target genes, 92.1 cells. Format: cell-based, human. Conditions: 10 µM compound, 48 h, normalised to GAPDH. On the procedure:
(§5) Finally, we determined if the treatment of UM cells 92.1 and Mel270 with our compounds could modify the mRNA levels of HDAC target genes. […]
(§6) Figure 9. Modulation of RAD54L, RAD51 and CLU mRNA expression by the different compounds in UM cells 92.1 and Mel270. Cells were treated for 48 h with 10 µM compound or the corresponding amount of DMSO. Data, normalised to GAPDH housekeeping gene, are expressed as fold change relative to the DMSO control. Error bars represent SD of triplicates. One representative experiment is shown.
as §3
(§7) To assess the modulation of gene expression, cells were harvested at 48 h of treatment and total RNA was isolated using the NucleoSpin RNA kit (Macherey-Nagel) and reverse-transcribed with the SuperScript III Reverse Transcriptase (Invitrogen). […] Expression levels of mRNAs relative to untreated control were calculated by the ΔΔCT method (Table 3).

Assay [3] has as its system HDAC target genes (RAD54L, RAD51, CLU) in Mel270 cells. Briefly: QRT-PCR of mRNA levels of HDAC target genes, Mel270 cells. Format: cell-based, human. Conditions: 10 µM compound, 48 h, normalised to GAPDH. On the procedure: as §5, §6, §3, §7

Molecules are shown by their SMILES.

T1 sequence (O15379 whole entry): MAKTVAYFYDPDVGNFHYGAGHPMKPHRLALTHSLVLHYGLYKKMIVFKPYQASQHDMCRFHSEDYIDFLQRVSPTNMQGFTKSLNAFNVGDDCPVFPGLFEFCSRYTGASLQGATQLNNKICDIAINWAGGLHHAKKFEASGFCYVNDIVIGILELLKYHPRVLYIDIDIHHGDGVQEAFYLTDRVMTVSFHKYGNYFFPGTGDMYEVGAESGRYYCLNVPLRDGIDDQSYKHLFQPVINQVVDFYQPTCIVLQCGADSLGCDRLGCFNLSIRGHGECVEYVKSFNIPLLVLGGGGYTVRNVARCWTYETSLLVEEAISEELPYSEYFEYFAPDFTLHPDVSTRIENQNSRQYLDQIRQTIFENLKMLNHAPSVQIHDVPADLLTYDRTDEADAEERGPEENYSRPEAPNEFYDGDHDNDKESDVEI
T1 sequence (Q9Y618 395-489 partner limits assumed): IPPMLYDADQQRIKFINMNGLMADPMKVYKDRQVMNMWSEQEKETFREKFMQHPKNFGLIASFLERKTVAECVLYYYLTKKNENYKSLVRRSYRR
T3 sequence (Q13547 whole entry): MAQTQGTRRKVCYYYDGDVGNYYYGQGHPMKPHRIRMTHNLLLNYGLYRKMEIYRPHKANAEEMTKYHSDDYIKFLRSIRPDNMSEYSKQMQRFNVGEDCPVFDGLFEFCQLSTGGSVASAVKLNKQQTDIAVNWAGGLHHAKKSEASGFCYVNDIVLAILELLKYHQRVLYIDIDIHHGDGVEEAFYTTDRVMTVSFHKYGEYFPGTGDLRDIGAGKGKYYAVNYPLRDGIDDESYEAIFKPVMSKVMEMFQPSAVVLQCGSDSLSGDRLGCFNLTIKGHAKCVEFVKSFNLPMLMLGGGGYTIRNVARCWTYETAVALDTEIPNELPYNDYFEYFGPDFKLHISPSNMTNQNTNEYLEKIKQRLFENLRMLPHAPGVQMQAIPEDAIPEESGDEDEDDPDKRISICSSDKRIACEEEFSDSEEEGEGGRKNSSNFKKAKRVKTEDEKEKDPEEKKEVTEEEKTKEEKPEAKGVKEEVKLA
From the text for HDAC1: (§8) Test compounds were screened against human histone deacetylases (HDACs) 1, 3, 6, and 8 using the Calliper off-chip mobility shift assay technology. All HDACs were purchased from BPS Bioscience and four selective substrates were used according to the targeted isozyme. […] Buffers components, except for CR-3 (LabChip Coating Reagent 3, purchased from PerkinElmer, Product Number 760050) and Panobinostat (LBH589, purchased from ApexBio Technology)[35]^,[36] were purchased from Sigma Aldrich. […] (all purchased from Selleck Chemicals).
From the text for HDAC3: as §8
From the text for HDAC6: as §8

As for `O=C(CCCCO/N=C/c1cnc2ccccc2c1)NO` [Compound 2f, (E)-N-hydroxy-5-(((quinolin-3-ylmethylene)amino)oxy)pentanamide], the IC50 at HDAC3 came out at 40 nM; in assay [1] (means of at least three experiments, SD <20% of the mean) it was 54 nM; on HDAC6 it was 10 nM; on HDAC1 it was 137 nM. For the same compound, the “effect on cell cycle distribution” value in the assay on Mel270 cells and with 92.1 cells was “efficiently block the cell cycle at the G0/G1 phase” in each case. Moreover, in assay [1] (HeLa extract IC50 compared with SAHA), the “folds more potent than SAHA” value is recorded as 3- to 5 fold. For the same compound, the “times less active than SAHA on HDAC6” value on HDAC6 (compared with SAHA) worked out at 7 times. In addition, the “modulation of mRNA levels of HDAC target genes” value is recorded as “induced a pattern of gene modulation, which overlapped that of SAHA” in assay [2] and “induced a pattern of gene modulation, which overlapped that of SAHA” in assay [3].

(Values after paper PMC7594840, “Identification of histone deacetylase inhibitors with (arylidene)aminoxy scaffold active in uveal melanoma cell lines” (Journal of Enzyme Inhibition and Medicinal Chemistry, 2020).)
